In US20200093815A1, “COMBINATIONS OF EZH2 INHIBITORS WITH FURTHER AGENTS FOR USE IN THE TREATMENT OF CANCER” (Constellation Pharmaceuticals, Inc., priority 2015, published 2020):

Columns and labels:
[1] = test system: H3K27me3; assay: MSD ELISA of global H3K27me3 and total H3 in OPM-2 tumors (lenalidomide study); format: in vivo, BALB/C nude mouse; conditions: end of study, total H3 as normalizer; Inhibitor 1 vs vehicle control, combination vs lenalidomide alone; FIG. 6C
Description: (§1) The experiment was carried out to assess the impact of Inhibitor 1 and lenalidomide in combination. Inhibitor 1 was dosed twice daily at 200 mg/kg, administered subcutaneously (200 mpk SC BID) and lenalidomide was dosed intraperitoneally once a day at 25 mg/kg (25 mpk IP QD) for the course of the entire study. Tumor volume was plotted as a function of time. Data are represented as the mean tumor volume per cohort and time point ±s.d. Bodyweight was assessed for vehicle and compound-treated animals for the experiment described in FIG. 6A. […] Data are represented as described in FIG. 6A. Vehicle and compound-treated tumors were collected at the end of the study and analyzed for global H3K27me3 and total H3 levels using an MSD ELISA assay.
Total H3 was used as a normalizer. Data are represented as the mean of data from 4 subjects±s.e.m.

[2] = test system: KARPAS-422 xenograft; conditions: mouse, in vivo, po, 100 mg/kg
Description: Tumor volume measurements were recorded at indicated days post initial dose.* CHOP: Cyclophosphamide, 40 mg/kg, i.v.; doxorubicin, 3.3 mg/kg, i.v.; vincristine, 0.5 mg/kg, i.v.; and prednisone, 0.2 mg/kg, every day for 5 days, p.o.

[3] = test system: OPM-2 multiple myeloma cells; assay: Cell Titre Glo viability, EZH2 inhibitor and lenalidomide matrix, OPM-2; format: cell-based; conditions: Inhibitor 1 alone, FIG. 3E
Description: (§2) For all these experiments estimating the combinatorial response between EZH2 inhibitor and lenalidomide, cells were pre-treated with 8 different doses of EZH2 inhibitor for 8 days (Cells were split after 4 days and plated onto EZH2 inhibitor containing plates for an additional 4 days). After pre-treatment, cells were split and seeded onto EZH2 inhibitor and lenaldomide containing plates (compounds plated in a matrix format). Viability was assessed using Cell Titre Glo after 4 days of co-treatment.
(§3) Data are represented as the average percentage of cells in drug-treated wells as compared to DMSO-treated wells from independent duplicate experiments (i and ii). To assess synergy, the data was analyzed in a number of ways including calculation of combination index, bliss independence score and Loewe excess score. […] Data are represented as the mean of independent duplicate experiments ±s.d.

[4] = test system: KMS-27 multiple myeloma cells; assay: Cell Titre Glo viability, EZH2 inhibitor and lenalidomide matrix, KMS-27; format: cell-based; conditions: Inhibitor 1 alone, FIG. 4E
Description: as §2, §3

[5] = test system: OPM-2 subcutaneous xenograft; assay: OPM-2 subcutaneous xenograft combination experiment (lenalidomide, dexamethasone); format: in vivo, BALB/C nude mouse
Description: as §1
Tumor volume was plotted as a function of time.

[6] = test system: H3K27me3; assay: MSD ELISA of global H3K27me3 and total H3 in OPM-2 tumors (Panobinostat study); format: in vivo, BALB/C nude mouse; conditions: Inhibitor 1 200 mpk SC BID vs vehicle control, end of study
Description: FIG. 11A is an in vivo combination experiment using an OPM-2 subcutaneous xenograft BALB/C nude mouse model (n=8 per cohort). The experiment was carried out to assess the impact of Inhibitor 1 and Panobinostat in combination. Inhibitor 1 was dosed twice daily at 200 mg/kg administered subcutaneously (200 mpk SC BID) and Panobinostat was dosed intraperitoneally once a day. Panobinostat was dosed at 5 mg/kg QD (DO-D4); 2.5 mg/kg QD (D7-D9, D13, D17 and D19), the dose and frequency of dosing was reduced to manage the toxicity effects. Tumor volume was plotted as a function of time. Data are represented as the mean tumor volume per cohort and time point±s.d. Bodyweight was assessed for vehicle and compound-treated animals for the experiment described in FIG. 11B. Data are represented as described in FIG. 11C. Vehicle and Inhibitor 1-treated tumors were collected at the end of the study and analyzed for global H3K27me3 and total H3 levels using an MSD ELISA assay. […] Data are represented as the mean of data from 4 subjects±s.e.m.

[7] = test system: 19 multiple myeloma cell lines; assay: Combination with standard of care agents in multiple myeloma cell lines; format: cell-based; conditions: FIG. 16
From the text: FIG. 16 summarizes the synergies observed between various standard of care agents as described above in 19 multiple myeloma cell lines.

| SMILES | levels of H3K27me3 in tumors [1] | adverse effects / toxicity [2] | effect of single agent on cell viability [3] | effect of single agent on cell viability [4] | single agent activity in xenograft model ([5]; Inhibitor 1 200 mpk SC BID alone) | effect on in vivo anti-tumor activity of dexamethasone ([5]; OPM-2 xenograft, FIG. 13) | levels of H3K27me3 in tumors [6] | combinatorial activity with standard of care agents [7] |
| --- | --- | --- | --- | --- | --- | --- | --- | --- |
| Nc1cccc2c1CN(C1CCC(=O)NC1=O)C2=O (stereo not drawn) [Lenalidomide, lenalidomide, reference compound] | did not affect |  |  |  |  |  |  |  |
| COc1cc(C)[nH]c(=O)c1CNC(=O)c1c(C)n(C(C)C2CCN(CC(F)(F)F)CC2)c2ccccc12 (stereo not drawn) [Inhibitor 3] |  | did not show any adverse effects and did not add to CHOP toxicity |  |  |  |  |  |  |
| CCS(=O)(=O)N1CCC([C@@H](C)n2c(C)c(C(=O)NCc3c(OC)cc(C)[nH]c3=O)c3ccccc32)CC1 [Inhibitor 1] | marked reduction |  | dose-dependent effect | dose-dependent effect | little single agent activity | increases | marked reduction | broadly combines with various different standard of care agents |
